Results as given in US10010545B1, “Antibiotic compositions and methods of use” (University of South Florida, priority 2013, dated 2018).
Converted amounts (≈) assume the structure as drawn.

Experiments:
Enterococcus faecium = assay: Growth testing against ESKAPE pathogens: Enterococcus faecium; assay type: cell-based; parameters: key: Growth; X: No Growth
Experimental: (§1) Six analogs (FIG. 2) of the ciprofloxacin-N thiolated β-lactam were successfully synthesized. All these compounds were then tested against ESKAPE pathogens for bioactivity. The ESKAPE pathogens are a collection of six deadly superbugs, Enterococcus faecium, Staphylococcus aureus, Klebsiella pneumoniae, Acinetobacter baumannii, Pseudomonas aeruginosa, and Enterobacter species. […] G denotes growth and X denotes no growth in the tables.

Staphylococcus aureus = assay: Growth testing against ESKAPE pathogens: Staphylococcus aureus; assay type: cell-based; parameters: key to Activity against Staphylococcus aureus (growth observed): Growth; X: No Growth
Experimental: as §1

Klebesiella pneumonia = assay: Growth testing against ESKAPE pathogens: Klebesiella pneumonia; assay type: cell-based, Klebsiella pneumoniae; parameters: key: Growth; X: No Growth
Experimental: as §1

Acinetobacter baumannii = assay: Growth testing against ESKAPE pathogens: Acinetobacter baumannii; assay type: cell-based; parameters: key: Growth; X: No Growth
Experimental: as §1

Pseudomonas aeruginosa = assay: Growth testing against ESKAPE pathogens: Pseudomonas aeruginosa; assay type: cell-based; parameters: key: Growth; X: No Growth
Experimental: as §1

MRSA = assay: Growth inhibition against MRSA; assay type: cell-based; settings: at 1 μg/ml against MRSA
Experimental: as §1
Synthesis of dual drugs for the antibacterial purposes is a huge arena of research and for the first time this was done with the N-thiolated β-lactams. Though both N-acyl ciprofloxacins and N-thiolated β-lactams have been independently studied, the attempt to combine them via a cleavable covalent bond was never done. This study has elaborated on the synthesis of six such analogs.

Q: Which “Activity against Enterococcus faecium (growth observed)” value (“Activity against Enterococcus faecium” below) (Enterococcus faecium; 1 μg/ml) does the source give for `CCC(C)SN1C(=O)C(OC(=O)c2cn(C3CC3)c3cc(N4CCN(C(C)=O)CC4)c(F)cc3c2=O)C1c1ccccc1Cl` (stereo not drawn) [Lactam 125] here?
A: G

Q: And the “Activity against Enterococcus faecium” value (Enterococcus faecium; 2 μg/ml)?
A: G

Q: What about the “Activity against Enterococcus faecium” value (Enterococcus faecium; 3 μg/ml) of the same compound?
A: G

Q: And the “Activity against Enterococcus faecium” value (Enterococcus faecium; 4 μg/ml)?
A: G

Q: And the “Activity against Enterococcus faecium” value (Enterococcus faecium; 5 μg/ml)?
A: G

Q: And the “Activity against Enterococcus faecium” value (Enterococcus faecium; 6 μg/ml)?
A: G

Q: What about the “Activity against Enterococcus faecium” value (Enterococcus faecium; 7 μg/ml) of the same compound?
A: G

Q: And the “Activity against Enterococcus faecium” value (Enterococcus faecium; 8 μg/ml)?
A: G

Q: What about the “Activity against Enterococcus faecium” value (Enterococcus faecium; 9 μg/ml) of the same compound?
A: G

Q: And the “Activity against Enterococcus faecium” value (Enterococcus faecium; 10 μg/ml)?
A: G

Q: And the “Activity against Enterococcus faecium” value (Enterococcus faecium; 25 μg/ml)?
A: G

Q: And the “Activity against Staphylococcus aureus (growth observed)” value (“Activity against Staphylococcus aureus” for short) (Staphylococcus aureus; 1 μg/ml)?
A: X

Q: What about the “Activity against Staphylococcus aureus” value (Staphylococcus aureus; 2 μg/ml) of the same compound?
A: X

Q: What about the “Activity against Staphylococcus aureus” value (Staphylococcus aureus; 3 μg/ml) of the same compound?
A: X

Q: What about the “Activity against Staphylococcus aureus” value (Staphylococcus aureus; 4 μg/ml) of the same compound?
A: X

Q: And the “Activity against Staphylococcus aureus” value (Staphylococcus aureus; 5 μg/ml)?
A: X

Q: What about the “Activity against Staphylococcus aureus” value (Staphylococcus aureus; 6 μg/ml) of the same compound?
A: X

Q: What about the “Activity against Staphylococcus aureus” value (Staphylococcus aureus; 7 μg/ml) of the same compound?
A: X

Q: What about the “Activity against Staphylococcus aureus” value (Staphylococcus aureus; 8 μg/ml) of the same compound?
A: X

Q: What about the “Activity against Staphylococcus aureus” value (Staphylococcus aureus; 9 μg/ml) of the same compound?
A: X

Q: What about the “Activity against Staphylococcus aureus” value (Staphylococcus aureus; 10 μg/ml) of the same compound?
A: X

Q: What about the “Activity against Staphylococcus aureus” value (Staphylococcus aureus; 25 μg/ml) of the same compound?
A: X

Q: And the MIC (Staphylococcus aureus; against S. aureus)?
A: 1 µg/mL (≈ 1.56 µM)

Q: What about the “Activity against Klebesiella pneumonia (growth observed)” value (shortened to “Activity against Klebesiella pneumonia”) (Klebesiella pneumonia; 1 μg/ml) of the same compound?
A: G

Q: What about the “Activity against Klebesiella pneumonia” value (Klebesiella pneumonia; 2 μg/ml) of the same compound?
A: G

Q: What about the “Activity against Klebesiella pneumonia” value (Klebesiella pneumonia; 3 μg/ml) of the same compound?
A: G

Q: And the “Activity against Klebesiella pneumonia” value (Klebesiella pneumonia; 4 μg/ml)?
A: G

Q: And the “Activity against Klebesiella pneumonia” value (Klebesiella pneumonia; 5 μg/ml)?
A: G

Q: And the “Activity against Klebesiella pneumonia” value (Klebesiella pneumonia; 6 μg/ml)?
A: G

Q: What about the “Activity against Klebesiella pneumonia” value (Klebesiella pneumonia; 7 μg/ml) of the same compound?
A: G

Q: What about the “Activity against Klebesiella pneumonia” value (Klebesiella pneumonia; 8 μg/ml) of the same compound?
A: G

Q: What about the “Activity against Klebesiella pneumonia” value (Klebesiella pneumonia; 9 μg/ml) of the same compound?
A: G

Q: And the “Activity against Klebesiella pneumonia” value (Klebesiella pneumonia; 10 μg/ml)?
A: G

Q: And the “Activity against Klebesiella pneumonia” value (Klebesiella pneumonia; 25 μg/ml)?
A: G

Q: What about the “Activity against Acinetobacter baumannii (growth observed)” value (“Activity against Acinetobacter baumannii” below) (Acinetobacter baumannii; 1 μg/ml) of the same compound?
A: G

Q: And the “Activity against Acinetobacter baumannii” value (Acinetobacter baumannii; 2 μg/ml)?
A: G

Q: And the “Activity against Acinetobacter baumannii” value (Acinetobacter baumannii; 3 μg/ml)?
A: G

Q: And the “Activity against Acinetobacter baumannii” value (Acinetobacter baumannii; 4 μg/ml)?
A: G

Q: And the “Activity against Acinetobacter baumannii” value (Acinetobacter baumannii; 5 μg/ml)?
A: G

Q: And the “Activity against Acinetobacter baumannii” value (Acinetobacter baumannii; 6 μg/ml)?
A: G

Q: What about the “Activity against Acinetobacter baumannii” value (Acinetobacter baumannii; 7 μg/ml) of the same compound?
A: G

Q: What about the “Activity against Acinetobacter baumannii” value (Acinetobacter baumannii; 8 μg/ml) of the same compound?
A: G

Q: What about the “Activity against Acinetobacter baumannii” value (Acinetobacter baumannii; 9 μg/ml) of the same compound?
A: G

Q: And the “Activity against Acinetobacter baumannii” value (Acinetobacter baumannii; 10 μg/ml)?
A: G

Q: And the “Activity against Acinetobacter baumannii” value (Acinetobacter baumannii; 25 μg/ml)?
A: G

Q: And the “Activity against Pseudomonas aeruginosa (growth observed)” value (“Activity against Pseudomonas aeruginosa” below) (Pseudomonas aeruginosa; 1 μg/ml)?
A: G

Q: What about the “Activity against Pseudomonas aeruginosa” value (Pseudomonas aeruginosa; 2 μg/ml) of the same compound?
A: G

Q: What about the “Activity against Pseudomonas aeruginosa” value (Pseudomonas aeruginosa; 3 μg/ml) of the same compound?
A: G

Q: What about the “Activity against Pseudomonas aeruginosa” value (Pseudomonas aeruginosa; 4 μg/ml) of the same compound?
A: G

Q: What about the “Activity against Pseudomonas aeruginosa” value (Pseudomonas aeruginosa; 5 μg/ml) of the same compound?
A: G

Q: What about the “Activity against Pseudomonas aeruginosa” value (Pseudomonas aeruginosa; 6 μg/ml) of the same compound?
A: G

Q: And the “Activity against Pseudomonas aeruginosa” value (Pseudomonas aeruginosa; 7 μg/ml)?
A: G

Q: What about the “Activity against Pseudomonas aeruginosa” value (Pseudomonas aeruginosa; 8 μg/ml) of the same compound?
A: G

Q: And the “Activity against Pseudomonas aeruginosa” value (Pseudomonas aeruginosa; 9 μg/ml)?
A: G

Q: And the “Activity against Pseudomonas aeruginosa” value (Pseudomonas aeruginosa; 10 μg/ml)?
A: G

Q: What about the “Activity against Pseudomonas aeruginosa” value (Pseudomonas aeruginosa; 25 μg/ml) of the same compound?
A: G

Q: What about the growth inhibition (MRSA) of the same compound?
A: complete growth inhibition
